Results on 7 compounds are retold here after article PMC5617480 (Oncotarget, 2017).

Where two headings read alike, the source gives them in different places. A value given as a limit tells only on which side of the number the result lay.

One data set has as its system mice. Briefly: In vivo toxicity of multiple doses. As to conditions: monitored another week. How it is done: We then assessed the in vivo toxicity of multiple doses of complex 6. The mice was treated with complex 6 at 7.8 mg/kg daily or per two day by iv injection up to 7 days, and then monitored for another week.
For a further data set, the system named is ds26. Briefly: FID assay. In kind it is binding. Particulars: for ds26DC50: FID; for ctDNADC50/ds26DC50: FID selectivity ratio.
The subject of a further data set is BEL-7402 xenograft. Briefly: In vivo tumor growth inhibition, BEL-7402 xenograft model. As to conditions: BEL-7402 model; for inhibition in weight: p<0.05; for Average tumor weight (mean ± SD g) / Body weight (End) / RBW (%) (End) / Tumor volume (End): day 18. As to the method:
(§1) In vivo anticancer efficacy of chiral platinum(II) complex 6 was evaluated using BEL-7404 and BEL-7402 xenograft mouse models. BEL-7404 and BEL-7402 cells were injected into nude mice. The mice were randomized into the control group, complex 6-treated group, and the positive control group (n = 6/group). When the volume of tumor was about 80 mm^3, complex 6 was given at a high (8 mg/kg) and low (4 mg/kg) dosage daily for 18 days, 5-FU (20 mg/kg every two days) and Cisplatin (2 mg/kg every two days) were used as a positive control in the BEL-7404 and BEL-7402 xenograft model, respectively.
(§2) To evaluate the vivo anticancer efficacy of complex 6, BEL-7404 and BEL-7402 xenograft mouse models (BALB/c nude mice, female for BEL-7404 model, 17–20 g, 6–7 weeks old; male for BEL-7402 model, 18-21 g, 6–7 weeks old) were used. Furthermore, animal used, maximum tolerated dose (MTD) analysis, acute toxicity studies and antitumor activity toward BEL-7404 and BEL-7402 models in vivo of complex 6, was similar to Chen reported.
(§3) H21T (3.5 pmol; 5’-G [T AG ] -3’), primer TS (18 pmol; tumor tissue were cut into about 1.5 mm3 small pieces, and […]
(§4) 5’-[…]-3’), KCl (63 mM), then transplanted into the right flank of nude mice. When EGTA (1 mM), MgCl (1.5 mM), Tween-20 (0.005%), the average tumors reach a volume of about 80 mm3, the […]
(§5) primer NT (7.5 pmol; 5’-[…]-3’), mice were randomized into 4 groups (n=6), received the […]
(§6) TSNT internal control (0.01 amol; 5’-[…] following treatments: (a) control, received saline solvent; […]
(§7) -3’), primer (b) complex 6 at doses of 8.0 mg/kg daily (dissolve in […]
(§8) Cxext (22.5 pmol; 5’-[…] saline, iv); (c) complex 6 at doses of 4.0 mg/kg daily; […]
(§9) […]-3’), Taq DNA polymerase (2.5 U), and (d) in BEL-7404 model, 5-fluorouracil (5-Fu) as positive telomerase (100 ng). Complexes or/and distilled water control at 20 mg/kg per two days (dissolve in saline, iv); was added ([…]). PCR was performed in an Eppendorf in BEL-7402 model, cisplatin as positive control at 2 mg/ Master cycler equipped with a hot lid and incubated for kg per two days (dissolve in saline, iv).
(§10) 30.0 min at 30 °C, followed by 92 °C 30 s, 52 °C 30 s, The tumor volumes and body weight was monitored and 72°C 30 s for 30.0 cycles. After amplification, 8.0 every 3 days, The tumor volumes were estimated by […] loading buffer (5×TBE buffer, 0.2% xylene cyanol, measuring the two dimensions of the tumors using caliper and 0.2% bromophenol blue ) were added to the reaction. and calculated by the formula 1 [1, 6, 14]:
(§11) An […] of aliquot was loaded onto a nondenaturing V = (length × width2)/2(1) acrylamide gel (19:1, 16%) in 1×TBE buffer and resolved at 200.0 V for 1.0 h. Gels were fixed and then stained with On day 18, the mice were sacrificed, and tumor AgNO3 [8–11]. tissue were dissected out and weighted, tumor growth inhibition rate calculated using formulas 2 and 3 [1, 6,
(§12) In order to verify whether complexes 4–6 can TGI (%) = (ΔVc − ΔVt)/ΔVc×100%(2) directly regulate c-myc promoter (Pu27) and the IR(%) = (Wc − Wt)/Wc×100%(3) expression of hTRET in BEL-7404 cells, consequently Where ΔVt = tumor volumefinal −tumor volumeinitial inhibiting the telomerase function, we constructed EGFP for compound treated group, ΔVc=tumor volumefinal − and c-myc gene vectors according to those illustrated tumor volumeinitial for vehicle control group; Wt and Wc in Chalfie, Chen and He previous work. The detailed mean the average tumor weight of complex-treated and procedures for the construct of gene (c-myc and EGFP vehicle controlled group respectively. genes) vectors, and the method of transfection assays REFERENCES have been reported by Chalfie, Chen and He [1, 6, 9, 12,

Another data set concerns BEL-7404 xenograft. As to conditions: for Body weight (start) / Tumor volume (start) / Average tumor weight (mean ± SD g) / Body weight (end) / RBW (%) (end) / Tumor volume (end): BEL-7404 model; for Average tumor weight (mean ± SD g) / Body weight (end) / RBW (%) (end) / Tumor volume (end): day 18. As to the method: as §1, §2, §3, §4, §5, §6, §7, §8, §9, §10, §11, §12

The test system of the next data set is c-kit-2. Details: method as in earlier work. As to conditions: ref [1], cited from earlier work; for ctDNADC50/c-kit-2DC50: FID selectivity ratio; for c-kit-2DC50: FID.
The subject of data set [1] is F21T (DNA, G4) GGGCTAGGGCTAGGGCTAGGG
Briefly: FRET melting. As to conditions: 100 mM K+; 10 mM Tris-HCl, pH 7.35; 2.0 μM compound, 1.0 μM DNA.

Setting [2] is: Cisplatin 2.0 mg/kg per two days iv.

As to cis-[PtCl2(S-(–)-FOA)] [complex 6], in the data set with mice (7.8 mg/kg daily iv up to 7 days), the “safety of multiple doses” value is reported as “safe for mice”. Besides, the body weight change entry in the data set on mice (7.8 mg/kg daily or per two day iv up to 7 days) is given as “Moderate body weight increase”. For the same compound, in the data set with ds26, the ds26DC50 came to 1.39 µM and the ctDNADC50/ds26DC50 worked out at 65.27. In the data set with BEL-7402 xenograft (4 mg/kg daily for 18 days), this compound yielded an inhibition in weight of 32.9%. In addition, the inhibition in weight with BEL-7402 xenograft (8 mg/kg daily for 18 days) was determined as 47.1%. For the same compound, in the data set with BEL-7402 xenograft (6 4.0 mg/kg daily iv), the “Body weight (start)” value came out at 19.1 ± 1.6 g, the “Tumor volume (start)” value amounted to 78.7±58.4 mm3, the “Average tumor weight (mean ± SD g)” value came out at 0.84 ± 0.39 g and the “Body weight (End)” value came out at 22.3 ± 1.3 g. In the data set with BEL-7402 xenograft (6 4.0 mg/kg daily iv), the “RBW (%) (End)” value was 117.7±6.3% and the “Tumor volume (End)” value came out at 648.8±242.1 mm3. For the same compound, the “TGI (%)” value with BEL-7402 xenograft (6 4.0 mg/kg daily iv, day 18, by tumor volume) was found to be 32.9%. The “Inhibition of tumor growth (%)” value in the data set on BEL-7402 xenograft (6 4.0 mg/kg daily iv, day 18, by tumor weight) is reported as 29.4%. For the same compound, in the data set with BEL-7402 xenograft (6 8.0 mg/kg daily iv), the “Body weight (start)” value worked out at 20.2 ± 0.7 g, the “Tumor volume (start)” value is 79.4±28.4 mm3, the “Average tumor weight (mean ± SD g)” value came out at 0.67 ± 0.46 g and the “Body weight (End)” value is 23.4 ± 1.4 g. Besides, in the data set on BEL-7402 xenograft (6 8.0 mg/kg daily iv), the “RBW (%) (End)” value was found to be 115.5±4.6% and the “Tumor volume (End)” value stood at 521.0±319.9 mm3. In the data set with BEL-7404 xenograft (BEL-7404 and BEL-7402 models, 4 and 8 mg/kg daily), the “discomfort / side effects in diet intake or overall body weight” value is “did not display any discomfort or discernible side effects”. In the data set on BEL-7404 xenograft (6 4.0 mg/kg daily iv), the “Body weight (start)” value came to 19.5 ± 1.6 g, the “Tumor volume (start)” value stood at 75.81±19.95 mm3, the “Average tumor weight (mean ± SD g)” value was found to be 0.67 ± 0.08 g and the “Body weight (end)” value was 17.2 ± 1.7 g. Besides, in the data set with BEL-7404 xenograft (6 4.0 mg/kg daily iv), the “RBW (%) (end)” value was 87.9±4.2% and the “Tumor volume (end)” value is on record as 782.94±73.43 mm3. Also, in the data set on BEL-7404 xenograft (6 8.0 mg/kg daily iv), the “Body weight (start)” value was 19.5 ± 1.2 g, the “Tumor volume (start)” value came out at 73.70±16.66 mm3, the “Average tumor weight (mean ± SD g)” value came out at 0.51 ± 0.19 g and the “Body weight (end)” value worked out at 17.4 ± 0.8 g. For the same compound, in the data set with BEL-7404 xenograft (6 8.0 mg/kg daily iv), the “RBW (%) (end)” value is 89.2±2.5% and the “Tumor volume (end)” value is on record as 659.96±253.88 mm3.

Turning to `O=C(NC[C@@H](O)CO)c1cnc2c3c(cccc13)-c1ccccc1C2=O.[Cl-].[Cl-].[Pt+2]` [ligand 2, R-(+)-FOA], in the data set on c-kit-2, the ctDNADC50/c-kit-2DC50 is listed as < 0.40 and the c-kit-2DC50 was > 100 µM. Besides, in data set [1], the ΔTm – broadly, the change in melting temperature against a reference sample – came out at 12.95 °C.

Turning to `N.N.[Cl][Pt][Cl]` [cisplatin, reference compound], in the data set on BEL-7402 xenograft (setting [2]), the “Tumor volume (start)” value worked out at 78.6±37.7 mm3, the “Average tumor weight (mean ± SD g)” value was found to be 0.38 ± 0.18 g and the “Tumor volume (End)” value came to 329.9±155.2 mm3.

For `O=C(NCC(O)CO)c1cnc2c3c(cccc13)-c1ccccc1C2=O.[Cl-].[Cl-].[Pt+2]` (racemic) [ligand 1, R/S-(±)-FOA], in the data set on c-kit-2, the ctDNADC50/c-kit-2DC50 is < 0.64 and the c-kit-2DC50 was > 100 µM. For the same compound, the ΔTm in data set [1] turned out to be 13.19 °C.

For `O=C(NC[C@H](O)CO)c1cnc2c3c(cccc13)-c1ccccc1C2=O.[Cl-].[Cl-].[Pt+2]` [ligand 3, S-(–)-FOA], in the data set with c-kit-2, the ctDNADC50/c-kit-2DC50 is 3.92 and the c-kit-2DC50 is 22.94 µM. Moreover, in data set [1], the ΔTm was 20.07 °C.

For the compound cis-[PtCl2(R/S-(±)-FOA)] [complex 4], in the data set on ds26, the ds26DC50 stood at 1.65 µM and the ctDNADC50/ds26DC50 is recorded as 45.98.

On to cis-[PtCl2(R-(+)-FOA)] [complex 5], for which, in the data set on ds26, the ds26DC50 turned out to be 2.23 µM and the ctDNADC50/ds26DC50 came to 28.56.
